In patent US20110009335A1, “Anticancer Treatments” (priority 2008, published 2011):
Where two headings read alike, the source gives them in different places. Starred links: 1 amine or outer side, 2 acyl side, 3 side chain; linkers in the order of their positions; H or OH if unused. Positions of bridges follow the written chain, without caps; N, C: chain ends. Non-standard residues stand in square brackets, D forms with d. Residues, ends and D or L forms follow the SMILES beside them. *: point of attachment. X1 = CC[C@H](C)[C@@H](N[*:1])[C@@H](O)CC(=O)O[C@H](C(=O)[C@H](C)C(=O)[*:2])C(C)C; NMeY = CN[C@@H](Cc1ccc(O)cc1)C(=O)O; dNMeL = CN[C@H](CC(C)C)C(=O)O; Pyruvoyl = CC(=O)C(=O)*

What was measured:
[1] = tested on: MRI-H-121 human renal tumor xenograft; test: Aplidine with sorafenib, MRI-H-121 xenograft in athymic nude mice (Example 1); assay type: in vivo; details: for antitumor activity as single agent (monotherapy): doses and schedules tested, sorafenib 60 or 30 mg/kg/day
Method: Female athymic nude mice (Harlan Sprague Dawley, Madison, Wis.) were utilized for all experiments. Mice were implanted with tumor fragments or a cell suspension when mice were 5 weeks of age. Animals were housed in ventilated rack caging, 5 mice per cage, with food and water ad libitum. The mice were acclimated for 1 week prior to being implanted with tumor fragments or cell suspensions.
Tumor measurements were determined by using Vernier calipers. The formula to calculate volume for a prolate ellipsoid was used to estimate tumor volume (mm^3) from 2-dimensional tumor measurements: Tumor volume (mm^3)=[L×W^2]÷2, where L is the length and it is the longest diameter in mm, and W is the width and it is the shortest diameter in mm of a tumor. Assuming unit density, volume was converted to weight (i.e., 1 mm^3=1 mg).
Body weights were recorded on treatment days and when tumor sizes were measured. In those days wherein the two drugs were administered the same day, the combination therapy groups were treated by co-administering the two drugs at the same time, with no attempt to sequence the treatments.
Aplidine was provided in the form of vials of lyophilized aplidine powder which was reconstituted in Cremophor EL/ethanol/water (CEW) 15/15/70 to a concentration of 0.5 mg/ml. Then the aplidine solution in CEW was diluted in 0.9% Saline to the dosing formulation concentrations, being the final proportion of CEW of 0.18/0.18/0.84.
(§1) Tumor size measurements were recorded twice weekly from the treatment initiation until the termination of the study.
(§2) Mean, standard deviation and standard error of the mean were determined for tumor volume for all animal groups at all assessments. Student's t test was performed on tumor volumes at each measurement day, including at the end of the study, to determine whether there were any statistically significant differences between combination treatment groups and single monotherapy treatment groups.
Determine the % of tumor growth inhibition, as 100−% T/C, for each of the drugs administered as monotherapy at the doses used in the combinations. % T/C was obtained by comparing the mean tumor weight in the treatment groups (T) to the mean tumor weight in the control group (C) (T/C×100%). • 2. The two scores were added together to determine the “expected response” if each agent produced the same response as it did when administered as monotherapy. • 3. This “expected response” was subtracted from the % of tumor growth inhibition determined for the combination therapy group: • a. A negative number meant that the effect of combining the two drugs was less than additive. • b. If the resulting number was close to zero, the effect of combining the two drugs was determined as additive. • c.

[2] = tested on: HepG2 human hepatoma xenograft; test: Aplidine with sorafenib, HepG2 xenograft in athymic nude mice (Example 6); assay type: in vivo; details: for % Inhibition G2: aplidine 0.06 mg/kg/day; for antitumor activity as single agent (monotherapy): doses tested; for % Inhibition G4: sorafenib 30 mg/kg/day; for % Inhibition G3: sorafenib 60 mg/kg/day
Method: Female athymic nude mice (Harlan Sprague Dawley, Madison, Wis.) were utilized for all experiments. Mice were implanted with a cell suspension when mice were 6-8 weeks of age. Animals were housed in ventilated rack caging with food and water ad libitum. The mice were acclimated for at least 5 days prior to tumor implantation.
The tumor model used in this study was HepG2, which is a human hepatoma cell line obtained from the ATCC (Manassas, Va.). HepG2 cells were grown in MEM medium, 10% FBS, 1.5 g/l sodium bicarbonate, 0.1 mM non-essential amino acids, 1.0 mM sodium pyruvate and 2 mM L-glutamine. Cells from in vitro passage 4-20 were implanted SC into study mice: 5×10^6 cells/mouse in 0.2 ml 50% Matrigel/50% medium without antibiotics or serum, using a 23 G needle and 1 cc syringe. Bacterial cultures were performed on aliquots of the cells prepared for implantation.
Tumor measurements were determined as disclosed in Example 1. When tumor growth was within an average size range of 130±44 mg (mean±SD), mice were randomized into the treatment and control groups based on tumor weight by using LabCat® In Life module V 8.0 SP1 tumor tracking and measurement software.
The treatment of HepG2-tumor-bearing mice was initiated on DPI (Day Post Implantation) 19. Body weights were recorded on treatment days and when tumor sizes were measured. In those days wherein the two drugs were administered the same day, the combination therapy groups were treated by co-administering the two drugs at the same time, with no attempt to sequence the treatments.
Aplidine was provided in the form of vials of lyophilized aplidine powder which was reconstituted in Cremophor EL/ethanol/water (CEW) 15/15/70 to a concentration of 0.5 mg/ml. The aplidine solution in CEW was diluted in 0.9% Saline to the dosing formulation concentrations, being the final proportion of CEW of 0.18/0.18/0.84.
as §1, §2
The definition and criteria for the evaluation of potentiation and the degree of additivity for the combination therapy were the same as those disclose in Example 1.

[3] = aplidine 0.040 and/or sorafenib 30 mg/kg/day
[4] = aplidine 0.060 and/or sorafenib 60 mg/kg/day
[5] = CAKI-1 study, Example 4 (temsirolimus)
[6] = NCI-H-460 study, Example 5 (temsirolimus)
[7] = G2: aplidine 0.060 mg/kg/day IP

## CC[C@H](C)[C@H]1NC(=O)[C@@H](NC(=O)[C@@H](CC(C)C)N(C)C(=O)[C@@H]2CCCN2C(=O)C(C)=O)[C@@H](C)OC(=O)[C@H](Cc2ccc(OC)cc2)N(C)C(=O)[C@@H]2CCCN2C(=O)[C@H](CC(C)C)NC(=O)[C@@H](C)C(=O)[C@H](C(C)C)OC(=O)C[C@@H]1O [aplidine, dehydrodidemnin B] (Pyruvoyl-P[dNMeL]T[X1]LP[NMeY](Me); ester 3-C)
[1]; [3]
  % T/C on day 14: 103.5%
  % T/C on day 16: 104.0%
  % T/C on day 20: 85.1%
  % T/C on day 23: 85.9%
  % T/C on day 27: 94.1%
  % T/C on day 30: 86.4%
  % T/C on day 34: 91.0%
  % T/C on day 37: 85.6%
  % T/C on day 41: 92.5%
  % T/C on day 44: 93.9%
  % T/C on day 48: 94.9%
[1]; [4]
  % T/C on day 14: 102.0%
  % T/C on day 16: 97.5%
  % T/C on day 20: 81.5%
  % T/C on day 23: 73.9%
  % T/C on day 27: 98.4%
  % T/C on day 30: 88.5%
  % T/C on day 34: 75.8%
  % T/C on day 37: 75.0%
  % T/C on day 41: 88.3%
  % T/C on day 44: 90.2%
  % T/C on day 48: 95.5%
[1]
  antitumor activity as single agent (monotherapy): refractory
A498 study, Example 2 (sunitinib)
  effect on body weight / toxicity: did not cause a significant decline in mean body weight
CAKI-1 study, Example 1 (sorafenib)
  effect on body weight / toxicity: did not cause a significant decline in mean body weight
CAKI-1 study, Example 2 (sunitinib)
  effect on body weight / toxicity: did not cause a significant decline in mean body weight
[5]
  effect on body weight / toxicity: did not cause a significant decline in mean body weight
HepG2 study, Example 6 (sorafenib)
  effect on body weight / toxicity: did not cause a significant decline in mean body weight
LOX-IMVI study, Example 7 (sorafenib)
  effect on body weight / toxicity: did not cause a significant decline in mean body weight
MRI-H-121 study, Example 2 (sunitinib)
  effect on body weight / toxicity: did not cause a significant decline in mean body weight
[6]
  effect on body weight / toxicity: did not cause a significant decline in mean body weight
[2]; [7]
  % T/C on day 19: 95.9%
  % T/C on day 22: 97.0%
  % T/C on day 26: 66.7%
  % T/C on day 30: 76.9%
  % T/C on day 33: 91.0%
[2]; day 19
  % Inhibition G2: 4.1%
[2]; day 22
  % Inhibition G2: 3.0%
[2]; day 26
  % Inhibition G2: 33.3%
[2]; day 30
  % Inhibition G2: 23.1%
[2]; day 33
  % Inhibition G2: 9.0%
[2]
  antitumor activity as single agent (monotherapy): inactive

## CNC(=O)c1cc(Oc2ccc(NC(=O)Nc3ccc(Cl)c(C(F)(F)F)c3)cc2)ccn1 [sorafenib]
[1]; [3]
  % T/C on day 14: 99.7%
  % T/C on day 16: 85.6%
  % T/C on day 20: 62.1%
  % T/C on day 27: 78.7%
  % T/C on day 30: 72.0%
  % T/C on day 34: 66.1%
  % T/C on day 37: 72.5%
  % T/C on day 41: 79.5%
  % T/C on day 44: 77.6%
  % T/C on day 48: 76.1%
[1]; [4]
  % T/C on day 14: 103.8%
  % T/C on day 16: 85.0%
  % T/C on day 20: 66.5%
  % T/C on day 23: 71.7%
  % T/C on day 27: 70.4%
  % T/C on day 30: 75.6%
  % T/C on day 34: 69.6%
  % T/C on day 37: 71.1%
  % T/C on day 41: 74.7%
  % T/C on day 44: 71.0%
  % T/C on day 48: 71.8%
[1]
  antitumor activity as single agent (monotherapy): did not reach the NCI criteria for activity
mouse, in vivo
  effect on body weight / toxicity: did not cause a significant decline in mean body weight
[2]; G3: sorafenib 60 mg/kg/day PO
  % T/C on day 19: 88.8%
  % T/C on day 22: 78.7%
  % T/C on day 26: 60.1%
  % T/C on day 30: 61.8%
  % T/C on day 33: 66.2%
[2]; G4: sorafenib 30 mg/kg/day PO
  % T/C on day 19: 101.4%
  % T/C on day 22: 123.5%
  % T/C on day 26: 91.3%
  % T/C on day 30: 100.9%
[2]
  antitumor activity as single agent (monotherapy): inactive
[2]; day 22
  % Inhibition G4: −23.5%
[2]; day 26
  % Inhibition G4: 8.7%
  % Inhibition G3: 39.9%
[2]; day 30
  % Inhibition G4: −0.9%
  % Inhibition G3: 38.2%
[2]; day 33
  % Inhibition G4: 9.6%
  % Inhibition G3: 33.8%
[2]; day 19
  % Inhibition G3: 11.2%

## CO[C@H]1C[C@@H]2CC[C@@H](C)[C@@](O)(O2)C(=O)C(=O)N2CCCC[C@H]2C(=O)O[C@H]([C@H](C)C[C@@H]2CC[C@@H](OC(=O)C(C)(CO)CO)[C@H](OC)C2)CC(=O)[C@H](C)/C=C(\C)[C@@H](O)[C@@H](OC)C(=O)[C@H](C)C[C@H](C)/C=C/C=C/C=C/1C [temsirolimus]
[5]
  effect on body weight / toxicity: did not cause a significant decline in mean body weight
[6]
  effect on body weight / toxicity: did not cause a significant decline in mean body weight
